Data taken from PMC4459817, “Vasculotide reduces endothelial permeability and tumor cell extravasation in the absence of binding to or agonistic activation of Tie2” (EMBO Molecular Medicine, 2015).

B1: recombinant human Ang1 (rhAng1) (ligand, UniProt Q15389 16-498, looked up)
chain: HIGCSNQRRSPENSGRRYNRIQHGQCAYTFILPEHDGNCRESTTDQYNTNALQRDAPHVEPDFSSQKLQHLEHVMENYTQWLQKLENYIVENMKSEMAQIQQNAVQNHTATMLEIGTSLLSQTAEQTRKLTDVETQVLNQTSRLEIQLLENSLSTYKLEKQLLQQTNEILKIHEKNSLLEHKILEMEGKHKEELDTLKEEKENLQGLVTRQTYIIQELEKQLNRATTNNSVLQKQQLELMDTVHNLVNLCTKEGVLLKGGKREEEKPFRDCADVYQAGFNKSGIYTIYINNMPEPKKVFCNMDVNGGGWTVIQHREDGSLDFQRGWKEYKMGFGNPSGEYWLGNEFIFAITSQRQYMLRIELMDWEGNRAYSQYDRFHIGNEKQNYRLYLKGHTGTAGKQSSLILHGADFSTKDADNDNCMCKCALMLTGGWWFDACGPSNLNGMFYTAGQNHGKLNGIKWHYFKGPSYSLRSTTMMIRPLDF
notes: angiopoietin-1, human, recombinant; also called angiopoietin-1; source: bought: R&D Systems (named for the Boyden chamber experiments)

Key:
[1] = system: tumor cells across dermal HMVECs; test: modified Boyden chamber, TC-CM stimulated tumor cell migration; assay type: cell-based, human; conditions: Fig4B; for TC migration in presence of TC-CM: 20 ng/mL VT or 400 ng/mL Ang1 vs PBS, paired t-test, n = 6 experimental replicates; for inhibition of TC migration, on average: 20 ng/mL VT
Description: To investigate this possibility in vitro, we performed modified Boyden chamber assays where we stimulated ECs with tumor cell-conditioned media (TC-CM)—that is, supplement-reduced EC growth media containing all the cytokines naturally secreted by LM2-4^luc, SN12^luc, or HT29^luc cells over 30 hours of hypoxic incubation (1% O2).
Meta-analyses of treatment effects on dextran permeability (A) and tumor cell migration (B), where each datapoint represents the mean of an independent experiment, averaged over 2–3 biological replicates (inserts) per treatment group and normalized internally within that same experiment.
Endothelial cells (ECs) were grown on cell culture inserts with uncoated 8-μm-pore PET filter membranes to 100% confluency. See Supplementary Fig S4 for detailed timelines. […] Permeability assays: A total of 100 μg of FITC-dextran (Sigma FD-20S) was dispensed into the upper chamber media. After 30 min of thrombin stimulation or 4–6 h of TC-CM stimulation, FITC fluorescence (ex/em = 490/520 nm) was measured from a 50 μl sample of the lower chamber media. Tumor cell extravasation assays: A total of 4 × 10^4 TCs freshly labeled with CellTracker™ Red CMPTX (Invitrogen C34552: ex/em = 577/602 nm) were seeded into each insert. Where EDTA was used in the permeability assay, the assay media was changed to remove EDTA before introducing TCs. After a 15- to 30-h incubation, the ECs and non-migrated TCs above insert membranes were removed with a cotton swab, whereas migrated/‘extravasated’ TCs and ECs below insert membranes were fixed in 4% PFA. Fixed membranes were mounted onto slides with DAPI stain. CMPTX fluorescence from migrated TCs was then quantified from 10× microscopy images using a MATLAB (MathWorks, Natick, MA, USA) script; five images (technical replicates) were analyzed per insert.
TCs were cultured in DMEM High Glucose basal media supplemented with 5% FBS and grown humidified incubators at 37 °C, 21%O2 and 5%CO2 unless otherwise specified. LM2-4 luc is a highly metastatically aggressive variant of the human breast carcinoma MDA-MB-231 cell line (derived through serial in vivo selection of lung metastases from orthotopic implantations in immunodeficient mice) that has been transfected with a firefly luciferase vector (Man et al, 2007; Ebos et al, 2009). HT29luc is a human colon carcinoma cell line also transfected with the luciferase gene (Hackl et al, 2013). SN12luc refers to a luciferase-tagged and highly metastatic clone of a human renal cell carcinoma cell line, SN12-

[2] = system: human Tie2-Fc (extracellular domain of Tie2); test: pull-down assay, human Tie2-Fc; assay type: binding; conditions: human Tie2-Fc on protein A sepharose; rhAng1 20 ng or VT 100 ng, pH 7.4, 4°C; Fig9A,B
Excerpt: To better understand the difficulties we had in observing Tie2 activation by VT, we sought to characterize the binding affinity and kinetics of VT to Tie2. Purified human or mouse Tie2-Fc (i.e., Fc-conjugated extracellular domains of Tie2) were first coupled to protein A sepharose beads for pull-down experiments (Fig9A and B) or immobilized on a Biacore CM5 sensor chip for surface plasmon resonance (SPR) experiments (Fig9C and Supplementary Fig S3).
Figure 9 Binding of Vasculotide vs. Ang1 variants to the extracellular domain of Tie2 • A–B Pull-down assay. Input ligands—rhAng1 (A) and VT (B)—were incubated with either protein A sepharose beads only, bead-conjugated mouse Tie2-Fc (mTie2), or bead-conjugated human Tie2-Fc (hTie2). […] The ‘unbound’ fraction is 7% of residual/free ligands remaining in the supernatant. • C Quantitative kinetics analysis by SPR. All analytes were run at increasing concentrations of 0.625, 1.25, 2.5, 5, and 10 nM, at 37°C and pH 7.4. […] Source data are available online for this figure. […]
Semi-quantitative densitometry analysis of immunoblots was performed using the ChemiGenius2 bioimaging system and GeneSnap/GeneTools software (Syngene). […]

Molecule | TC migration in presence of TC-CM [1] | inhibition of TC migration, on average ([1]; LM2-4luc-conditioned media) [%] | inhibition of TC migration, on average ([1]; SN12luc-conditioned media) [%] | pull-down by Tie2-Fc [2]
CHHHRHSF [Vasculotide, 4-armed maleimide-functionalized polyethylene glycol (PEG) backbone to link together four cysteine-capped T7 peptides, that is, CHHHRHSF] | P = 0.10 for VT | −43 | −23 | did not pull down any appreciable levels
B1 | P < 0.05 for Ang1 | – | – | effectively pulled down the majority
